The test system of experiment [1] is anti-OVA-IgE antibody production. In words: Suppressive effect on mouse in vivo anti-OVA-IgE antibody production. The following applies: po, 336 h, BALB/c mice immunized with OVA on aluminium hydroxide gel, 100 mg/kg orally once a day for 5 days, serum on day 14, PCA reaction in Wistar rats, read-out: Suppressive rate for IgE antibody production (%). The procedure:
BALB/c mice, female, 7 weeks old, 7 mice in a group, and 9-11 mice in control group, were used for tests.
Suppressive effect of the compound of the present invention on IgE antibody production was evaluated according to a method described in the reference, Levin and Vaz, International Archives of Allergy and Applied Immunology, 39: 156, 1970. Immunization was performed by intraperitoneally administering aluminium hydroxide gel (4 mg, PIERCE Inc.) adsorbed with egg albumin (OVA; Sigma Inc.) 10 μg in mice. Test compounds were suspended or dissolved in water containing 0.5% carboxymethyl cellulose, and administered orally to test animals, 100 mg/kg, immediately after immunization, once a day for 5 days. Water containing 0.5% carboxymethyl cellulose without addition of test compound was administered to the control group.
On day 14 after the immunization, blood was collected, and passive cutaneous anaphylaxis (PCA) reaction was performed according to the method described in the reference, Ovary et al. International Archives of Allergy and Applied Immunology, 48: 16, 1975, to determine the antibody production. Serum 0.1 ml, which was serially twofold diluted with physiological saline, was injected intracutaneously in the back of Wistar rats, male, 8 weeks old. After 24 hours, 0.5% Evans blue physiological saline solution, which contains OVA 2 mg, 1 ml was injected intravenously to determine the serum boundary concentration of pigment infiltration.
Suppressive rate for IgE antibody production is determined by the following equation.
Suppressive rate for IgE antibody production (%) [formula]

Experiment [2] relates to immediate type allergic foot-pad reaction. Description: Suppression of mouse in vivo foot-pad reaction. To be noted: BALB/c mice immunized by egg albumin; oral 3-100 mg/kg once a day for 5 days; compared with the positive control. The procedure:
BALB/c mice, female, 7 weeks old, 5 mice in a group for test group and 12-14 mice for control group were used for tests.
Effect of the compounds of the present invention on suppression of mouse in vivo foot-pad reaction is evaluated by the following method.
Mice were immunized by administering intraperitoneally 4 mg of aluminium hydroxide gel, which was adsorbed with OVA 5 μg. Test compounds were suspended or dissolved in water containing 0.5% carboxymethyl cellulose, and were administered to test animals orally at 3-100 mg/kg, once a day, for 5 days, from immediately after immunization. For control groups, water containing 0.5% carboxymethyl cellulose without addition of the test compound was administered.
After 10 days of immunization, OVA 10 μg was injected into the hindlim pads of mice to induce immediate type allergic foot-pad reaction. Control groups were divided into tow groups. The one was injected OVA to induce allergic foot-pad reaction for positive control, and the other was injected physiological saline for negative control. After 30 minutes, foot-pad volume of hidlimb of mice was measured by using Plethysmometer (Unicom Co.) to determine increased rate for comparison before induction of foot-pad reaction.
Suppressive rate for foot-pad reaction is obtained by the following equation.
Suppressive rate for foot-pad reaction (%) [formula]
A: increased rate of foot-pad reaction in positive control group,
B: increased rate of foot-pad reaction in negative control group,
C: increased rate of foot-pad reaction in test group (test compound administered group).

In the case of `CCCCOc1ccc(CCC(=O)O)cc1-c1ccccc1` [Compound(01), 3-(2-butoxy-1,1′-biphenyl-5-yl)propionic acid], the inhibition in vivo at 100 mg/kg in experiment [1] worked out at 72.3%.
In the case of `CCCCCOc1ccc(CCC(=O)O)cc1-c1ccccc1` [Compound(03), 3-(2-pentyloxy-1,1′-biphenyl-5-yl)propionic Acid], the inhibition in vivo at 100 mg/kg in experiment [1] worked out at 50.9%.
Regarding `O=C(O)CCc1ccc(OC2CCCC2)c(-c2ccccc2)c1` [Compound(04), 3-(2-cyclopentyloxy-1,1′-biphenyl-5-yl)propionic Acid], the inhibition in vivo at 100 mg/kg in experiment [1] is 45.5%. In experiment [2], the “suppressive action against immediate type allergic foot-pad reaction” value (shortened to “suppressive action”) is “significant suppressive action”.
The matching figures for `O=C(O)CCc1ccc(OCC2CCCCC2)c(-c2ccccc2)c1` [Compound(07), 3-(2-cyclohexylmethyloxy-1,1′-biphenyl-5-yl)propionic Acid]: 62% and “significant suppressive action”.
Regarding `CCC(O)COc1ccc(CCC(=O)O)cc1-c1ccccc1` (centres unmarked) [Compound(08), 3-[2-(2-hydroxybutyloxy)-1,1′-biphenyl-5-yl]propionic acid], in experiment [1], the inhibition in vivo at 100 mg/kg was 58.9%.
On the same count and under the same terms, for `O=C(O)CCc1ccc(OCC(=O)O)c(-c2ccccc2)c1` [Compound(12), 3-(2-carboxymethyloxy-1,1′-biphenyl-5-yl)propionic acid] the value was 50.8%.
On the same count and under the same terms, to `CCCCOc1c(NC(C)=O)cc(CCC(=O)O)cc1-c1ccccc1` [Compound(15), 3-(3-acetylamino-2-butoxy-1,1′-biphenyl-5-yl)propionic Acid] belongs 64.2%.
For `NC(=O)Nc1cc(CCC(=O)O)cc(-c2ccccc2)c1OCC1CCCCC1` [Compound(22), 3-(3-carbamoylamino-2-cyclohexylmethyloxy-1,1′-biphenyl-5-yl)propionic Acid], in experiment [1], the inhibition in vivo at 100 mg/kg came out at 48.1%. Further, in experiment [2], the “suppressive action” value was “significant suppressive action”.
The matching figures for `O=C(O)CCc1ccc(OCC2CCCCC2)c(-c2ccc(O)cc2)c1` [Compound(25), 3-(2-cyclohexylmethyloxy-4′-hydroxy-1,1′-biphenyl-5-yl)propionic Acid]: 45.5% and “significant suppressive action”.
As to `CCCCOc1ccc(CCCC(=O)O)cc1-c1ccccc1` [Compound(28), 4-(2-butoxy-1,1′-biphenyl-5-yl)butyric Acid], the inhibition in vivo at 100 mg/kg in experiment [1] was 44.5%. Moreover, the “suppressive action” value in experiment [2] is “significant suppressive action”.
As for `CC(C)COc1ccc(CCCC(=O)O)cc1-c1ccccc1` [Compound(29), 4-(2-isobutoxy-1,1′-biphenyl-5-yl)butyric Acid], the inhibition in vivo at 100 mg/kg in experiment [1] amounted to 55.7%.
As for `CCCCCOc1ccc(CCCC(=O)O)cc1-c1ccccc1` [Compound(31), 4-(2-pentyloxy-1,1′-biphenyl-5-yl)butyric Acid], the inhibition in vivo at 100 mg/kg in experiment [1] was 49.8%.
With `O=C(O)CCCc1ccc(OCC(=O)O)c(-c2ccccc2)c1` [Compound(44), 4-(2-carboxymethyloxy-1,1′-biphenyl-5-yl)butyric Acid], the inhibition in vivo at 100 mg/kg in experiment [1] amounted to 71.5%. Besides, the “suppressive action” value in experiment [2] was “significant suppressive action”.
Turning to `O=C(O)CCCc1ccc(OCCC(=O)O)c(-c2ccccc2)c1` [Compound(45), 4-[2-(2-carboxyethyloxy)-1,1′-biphenyl-5-yl]butyric Acid], the inhibition in vivo at 100 mg/kg in experiment [1] turned out to be 57%.
The same measure, in the same setting: to `O=C(O)CCCOc1ccc(CCCC(=O)O)cc1-c1ccccc1` [Compound(46), 4-[2-(3-carboxypropyloxy)-1,1′-biphenyl-5-yl]butyric Acid] belongs 64.6%.
With `NC(=O)COc1ccc(CCCC(=O)O)cc1-c1ccccc1` [Compound(47), 4-(2-carbamoylmethyloxy-1,1′-biphenyl-5-yl)butyric Acid], in experiment [1], the inhibition in vivo at 100 mg/kg is 65.7%. Besides, the “suppressive action” value in experiment [2] is “significant suppressive action”.
Take `CCCCOc1c(NC(C)=O)cc(CCCC(=O)O)cc1-c1ccccc1` [Compound(52), 4-(3-acetylamino-2-butoxy-1,1′-biphenyl-5-yl)butyric Acid]: the inhibition in vivo at 100 mg/kg in experiment [1] was 64.2%.
As to `CCCCOc1ccc(CCCC(N)=O)cc1-c1ccccc1` [Compound(55), 4-(2-butoxy-1,1′-biphenyl-5-yl)butyramide], in experiment [1], the inhibition in vivo at 100 mg/kg was 55.7%. In addition, the “suppressive action” value in experiment [2] is given as “significant suppressive action”.
As to `COc1ccc(CCC(=O)O)cc1-c1ccccc1` [Control(1), 3-(2-methoxy-1,1′-biphenyl-5-yl)propionic acid, reference compound], the inhibition in vivo at 100 mg/kg in experiment [1] is -14.4%.
The same measure, in the same setting: to `C=CCOc1ccc(-c2cc(CCC(=O)OC)ccc2OCc2ccccc2)cc1` [Control(2), Methyl 3-(4′-allyloxy-2-benzyloxy-1,1′-biphenyl-5-yl)propionate, reference compound] belongs -11.6%; to `CC1(C)CCC(C)(C)c2cc(COc3ccc(C(=O)O)cc3-c3ccccc3)ccc21` [Control(3), [2-(5,6,7,8-tetrahydro-5,5,8,8-tetramethyl-2-naphthalenyl)methyloxy-1,1′-biphenyl-5-yl]carboxylic acid, reference compound], -2.8%.
On the same count and under the same terms, to `CC1(C)CCC(C)(C)c2cc(COc3cccc(CCC(=O)O)c3-c3cccc(C(=O)O)c3)ccc21` [Control(4), 3-[3′-carboxy-2-(5,6,7,8-tetrahydro-5,5,8,8-tetramethyl-2-naphthalenyl)methyloxy-1,1′-biphenyl-6-yl]propionic acid, reference compound] belongs -8.4%.
Same read-out and setting: for `CCCCOc1ccc(CCCC(=O)NCC)cc1-c1ccccc1` [Control(5), N-ethyl-4-(2-butoxy-1,1′-biphenyl-5-yl)butyramide, reference compound] the value was -2.5%; for `CCCCOc1ccc(-c2ccccc2)cc1CCCC(=O)O` [Control(6), 4-(4-butoxy-1,1′-biphenyl-3-yl)butyric acid, reference compound], 7.3%.

The values are drawn from patent US6376546B1, “Biphenyl-5-alkanoic acid derivatives and use thereof” (Asahi Kasei Kabushiki Kaisha, priority 1997, dated 2002).
